# From US20240300923A1, “IRAK4 Inhibitors” (ASTRAZENECA AB, priority 2022, published 2024)
# Assays:
# IRAK4 [1] = biological target: T1, IRAK4 (Homo sapiens (Human), UniProt Q9NWZ3); assay: IRAK4 phosphorylation cell assay (IL-1β-stimulated Karpas-299 cells); format: cell-based; conditions: IRAK4 auto-phosphorylation (pIRAK4 Thr345/Ser346) in IL-1β-stimulated Karpas-299 cells; geometric mean of at least 2 experiments
# Protocol: IRAK4 Phosphorylation Cell Assay
# The activation of IRAK4 by TLR or IL-1R ligands leads to IRAK4 auto-phosphorylation, which can be prevented by IRAK4 kinase inhibitors. The effect of IRAK4 inhibitor compounds on IRAK4 auto-phosphorylation was assessed in IL-1β-stimulated Karpas-299 cells as a measurement of cellular potency. Karpas-299 cells were cultured in RPMI 1640 (Gibco 61870-010) containing 10% FBS (Gibco #10270). Cells were plated at 2×10^4 cells per well in poly-D-lysine coated 384 well plates (Corning #356663) to which compounds had been added at various concentrations (10 point half log dose response with a final top concentration of 30 μM) using an Echo 655 (Labcyte Inc). Cells were centrifuged (250 g, 4 mins), incubated at 37° C. for 1 h, then stimulated with 22.7 ng/mL recombinant IL-1β (R&D Systems, #201-LB-025) at 37° C. for 10 mins, followed by fixation in 4% paraformaldehyde for 20 mins and permeabilization in ice-cold 70% MeOH in PBS for 30 mins. Cells were washed twice with phosphate-buffered saline (PBS) on a BlueWasher (BlueCatBio) then blocked with PBS containing 10% FBS for 20 mins. Blocking solution was removed with a BlueWasher and cells were stained with anti-pIRAK4 (Thr345/Ser346) (CST, #11927, 1:400) in blocking buffer with 0.05% Tween-20 for 1 h, then washed twice with PBS containing 0.05% Tween-20 on a BlueWasher, followed by staining with a Alexa 647-conjugated secondary anti-rabbit IgG antibody (CST, #4414, 1:2,000) and Hoechst 33342 (Sigma, 1:2,000) in blocking buffer with 0.05% Tween-20 for 30 mins. Finally, the cells were washed twice with PBS containing 0.05% Tween-20 and imaged on an ImageXpress Micro (Molecular Devices) with a 10× air objective using the appropriate filters. Images were analysed in Columbus (PerkinElmer) and the fluorescence intensity per cell from the secondary antibody was quantified. The quantified data were analysed in Genedata Screener 19 (Genedata AG). […] IC50 values are the geometric mean of at least 2 experiments.
# IRAK4 [2] = biological target: T1, IRAK4; assay: IRAK4 enzyme assay (mass spectrometry readout); format: biochemical; conditions: human recombinant IRAK4 0.2 nM, 3 mM ATP; geometric mean of at least 2 experiments
# Protocol: Potency of IRAK4 Inhibitor Compounds in IRAK4 Enzyme Assay
# The inhibitory activity of compounds against IRAK4 were determined in an enzymatic assay using mass spectrometry readout. Ten point half-log compound concentration response curves, with a top concentration of 1 μM or 10 μM, were generated from 10 mM stocks of compound solubilized in DMSO using an Echo 655 (Labcyte Inc) and added to 384 well assay plates (Greiner #781280). To the assay plates, 10 μL of human recombinant IRAK4 protein (Life Technologies #PV4002) diluted to a final concentration of 0.2 nM in assay buffer (50 mM Tris-HCl pH 7.4, 10 mM MgCl, 5 mM glutathione, 0.01% BSA, 3 mM ATP) was added. The enzyme was incubated with the compounds at room temperature for 15 minutes before a peptide substrate ([…], Innovagen custom synthesis, 10 mM in DMSO) was added to each well to a final concentration of 10 μM using an Echo 655 (Labcyte Inc). After two hours at room temperature, the reaction was stopped with 65 μL of 0.4% formic acid (Merck #33015). The unphosphorylated and phosphorylated peptide were measured by LC-MS/MS on a Waters TQ-S mass spectrometer. Peaks were integrated using the TargetLynx software and the ratios between phosphorylated and unphosphorylated peptides were calculated. Curves were fitted and compound potencies determined in Genedata Screener 19 (Genedata AG). IC50 values are the geometric mean of at least 2 experiments.
# human cKit kinase = human cKit kinase (Homo sapiens (Human), UniProt P10721); assay: cKit enzyme assay (LANCE, Eurofins CEREP); format: biochemical; conditions: human recombinant enzyme, 50 μM ATP; geometric mean of at least n=2, * = single experiment
# Protocol: Potency of IRAK4 Inhibitor Compounds in cKit Enzyme Assay
# Evaluation of the effects of the IRAK4 inhibitor compounds on the activity of the human cKit kinase quantified by measuring the phosphorylation of the substrate Ulight-TK peptide using a human recombinant enzyme and the LANCE® detection method at Eurofins CEREP, catalog item 3070, SOP no 1C768: The test compound, reference compound or water (control) are mixed with the enzyme (0.38 ng) in a buffer containing 40 mM Hepes/Tris (pH 7.4), 0.8 mM EGTA/Tris, 8 mM MgCl2, 1.6 mM DTT and 0.008% Tween 20. Thereafter, the reaction is initiated by adding 100 nM of the substrate Ulight-TK peptide and 50 μM ATP, and the mixture is incubated for 30 min at room temperature. For control basal measurements, the enzyme is omitted from the reaction mixture. Following incubation, the reaction is stopped by adding 13 mM EDTA. After 5 min, the anti-phopho-PT66 antibody labeled with europium chelate is added. After 60 more min, the fluorescence transfer is measured at lex=337 nm, lem=620 nm and lem=665 nm using a microplate reader (Envision, Perkin Elmer). The enzyme activity is determined by dividing the signal measured at 665 nm by that measured at 620 nm (ratio). The results are expressed as a percent inhibition of the control enzyme activity. The standard inhibitory reference compound is staurosporine, which is tested in each experiment at several concentrations to obtain an inhibition curve from which its IC50 value is calculated.
# Data presented are the geometric mean of at least n=2, or as denoted by an*are obtained from a single experiment. […] Kinase selectivity can be a key determinant of clinical utility as off target toxicity can be reduced or eliminated.
# T1 sequence (Q9NWZ3 whole entry): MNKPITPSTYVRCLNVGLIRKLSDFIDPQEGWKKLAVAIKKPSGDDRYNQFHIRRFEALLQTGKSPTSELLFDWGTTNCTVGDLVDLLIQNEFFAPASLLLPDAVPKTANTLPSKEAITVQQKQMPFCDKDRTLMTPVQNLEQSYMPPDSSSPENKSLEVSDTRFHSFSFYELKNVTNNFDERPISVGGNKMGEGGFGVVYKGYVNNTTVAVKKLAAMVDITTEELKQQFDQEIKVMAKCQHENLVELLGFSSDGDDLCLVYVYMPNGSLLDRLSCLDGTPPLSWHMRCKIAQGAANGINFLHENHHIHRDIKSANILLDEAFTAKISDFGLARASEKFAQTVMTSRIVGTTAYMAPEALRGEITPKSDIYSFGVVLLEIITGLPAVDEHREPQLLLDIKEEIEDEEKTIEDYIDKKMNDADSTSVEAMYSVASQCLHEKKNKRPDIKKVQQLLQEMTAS
# Sequence of human cKit kinase (P10721 26-976): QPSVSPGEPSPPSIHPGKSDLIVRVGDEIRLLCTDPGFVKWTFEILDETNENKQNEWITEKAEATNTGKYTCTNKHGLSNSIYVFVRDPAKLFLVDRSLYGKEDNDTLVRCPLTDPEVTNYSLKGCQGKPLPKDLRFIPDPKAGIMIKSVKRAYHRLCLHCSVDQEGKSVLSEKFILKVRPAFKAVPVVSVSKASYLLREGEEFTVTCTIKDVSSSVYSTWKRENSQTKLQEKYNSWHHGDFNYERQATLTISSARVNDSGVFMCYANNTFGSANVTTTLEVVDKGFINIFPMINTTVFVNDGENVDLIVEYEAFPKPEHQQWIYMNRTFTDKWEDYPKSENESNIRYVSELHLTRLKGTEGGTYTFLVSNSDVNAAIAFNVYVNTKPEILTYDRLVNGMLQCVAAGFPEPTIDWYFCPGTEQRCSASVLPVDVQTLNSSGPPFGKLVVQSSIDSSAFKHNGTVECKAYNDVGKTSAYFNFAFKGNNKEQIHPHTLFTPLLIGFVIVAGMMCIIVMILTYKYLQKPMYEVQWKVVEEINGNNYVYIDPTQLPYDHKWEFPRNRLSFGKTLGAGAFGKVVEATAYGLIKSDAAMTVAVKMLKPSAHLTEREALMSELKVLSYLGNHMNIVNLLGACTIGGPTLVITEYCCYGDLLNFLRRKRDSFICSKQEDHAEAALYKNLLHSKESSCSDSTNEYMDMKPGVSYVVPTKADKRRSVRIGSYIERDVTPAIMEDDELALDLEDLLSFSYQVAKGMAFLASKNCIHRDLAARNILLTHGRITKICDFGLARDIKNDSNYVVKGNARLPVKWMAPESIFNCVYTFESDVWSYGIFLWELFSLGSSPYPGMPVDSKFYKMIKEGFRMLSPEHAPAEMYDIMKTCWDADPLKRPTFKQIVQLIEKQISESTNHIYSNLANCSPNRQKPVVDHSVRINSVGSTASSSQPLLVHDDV
Structure (SMILES),IC50 (IRAK4 [1]),IC50 (IRAK4 [2]),IC50 (human cKit kinase)
"COc1cc2nn([C@@H]3CCC(N(C)C(C)=O)C[C@H]3C)cc2cc1C(=O)Nc1cccn(C)c1=O (single isomer, unassigned) [Example 3]",21 nM,0.7 nM,13700 nM
"COc1cc2nn([C@@H]3CC[C@H](N(C)C(C)=O)C[C@@H]3C)cc2cc1C(=O)Nc1cccn(C)c1=O (single isomer, unassigned) [Example 7]",4500 nM,459 nM,–
"COc1cc2nn(C3CCC(c4cccnn4)CC3)cc2cc1C(=O)Nc1cccn(C)c1=O (single isomer, unassigned) [Example 24, 6-Methoxy-N-(1-methyl-2-oxo-1,2-dihydropyridin-3-yl)-2-(4-(pyridazin-3-yl)cyclohexyl)-2H-indazole-5-carboxamide]",17 nM,1.2 nM,88100 nM
"COc1cc2nn([C@H]3CC[C@H](n4ccnc4C(C)O)CC3)cc2cc1C(=O)Nc1cccn(C)c1=O (single isomer, unassigned) [Example 28, 2-((1r,4r)-4-(2-(1-hydroxyethyl)-1H-imidazol-1-yl)cyclohexyl)-6-methoxy-N-(1-methyl-2-oxo-1,2-dihydropyridin-3-yl)-2H-indazole-5-carboxamide]",31 nM,0.5 nM,10600 nM
"COc1cc2nn([C@@H]3CC[C@@H](N(C)C(C)=O)C[C@@H]3C)cc2cc1C(=O)Nc1cccn(C)c1=O [Example 4, 6-Methoxy-N-(1-methyl-2-oxo-1,2-dihydropyridin-3-yl)-2-((1R,2S,4R)-2-methyl-4-(N-methylacetamido)cyclohexyl)-2H-indazole-5-carboxamide]",67 nM,3.9 nM,18300 nM
"COc1cc2nn([C@H]3CC[C@H](N(C)C(=O)[C@@H](C)O)CC3)cc2cc1C(=O)Nc1cccn(CF)c1=O [Example 9, N-(1-(Fluoromethyl)-2-oxo-1,2-dihydropyridin-3-yl)-2-((1R,4r)-4-((R)-2-hydroxy-N-methylpropanamido)cyclohexyl)-6-methoxy-2H-indazole-5-carboxamide]",15 nM,0.4 nM,3300 nM
"COc1cc2nn([C@H]3CC[C@H](N(C)C(=O)[C@@H](C)O)CC3)cc2cc1C(=O)Nc1cccn(CC#N)c1=O [Example 10, N-(1-(Cyanomethyl)-2-oxo-1,2-dihydropyridin-3-yl)-2-((1R,4r)-4-((R)-2-hydroxy-N-methylpropanamido)cyclohexyl)-6-methoxy-2H-indazole-5-carboxamide]",37 nM,1.4 nM,2500 nM
"COc1cc2nn([C@H]3CC[C@H](N(C)C(=O)[C@@H](C)O)CC3)cc2cc1C(=O)Nc1cccn(-c2cn[nH]c2)c1=O [Example 14, 2-((1R,4r)-4-((R)-2-Hydroxy-N-methylpropanamido)cyclohexyl)-6-methoxy-N-(2-oxo-1-(1H-pyrazol-4-yl)-1,2-dihydropyridin-3-yl)-2H-indazole-5-carboxamide]",15 nM,0.3 nM,–

# The remaining lines, values ahead:
IC50 (IRAK4 [1]),IC50 (IRAK4 [2]),IC50 (human cKit kinase),Structure (SMILES)
238 nM,10.7 nM,–,"COc1cc2nn([C@@H]3CCC(N(C)C(C)=O)C[C@H]3C)cc2cc1C(=O)Nc1cccn(C)c1=O (single isomer, unassigned) [Example 2]"
2880 nM,199 nM,–,"COc1cc2nn([C@@H]3CC[C@H](N(C)C(C)=O)C[C@@H]3C)cc2cc1C(=O)Nc1cccn(C)c1=O (single isomer, unassigned) [Example 6]"
185 nM,5 nM,–,"COc1cc2nn(C3CCC(c4cccnn4)CC3)cc2cc1C(=O)Nc1cccn(C)c1=O (single isomer, unassigned) [Example 23, 6-Methoxy-N-(1-methyl-2-oxo-1,2-dihydropyridin-3-yl)-2-(4-(pyridazin-3-yl)cyclohexyl)-2H-indazole-5-carboxamide]"
19 nM,0.6 nM,8400 nM,"COc1cc2nn([C@H]3CC[C@H](n4ccnc4C(C)O)CC3)cc2cc1C(=O)Nc1cccn(C)c1=O (single isomer, unassigned) [Example 29, 2-((1r,4r)-4-(2-(1-hydroxyethyl)-1H-imidazol-1-yl)cyclohexyl)-6-methoxy-N-(1-methyl-2-oxo-1,2-dihydropyridin-3-yl)-2H-indazole-5-carboxamide]"
30 nM,1.1 nM,13000 nM,"COc1cc2nn([C@H]3CC[C@H](N(C)C(C)=O)CC3)cc2cc1C(=O)Nc1cccn(C)c1=O [Example 1, 6-Methoxy-N-(1-methyl-2-oxo-1,2-dihydropyridin-3-yl)-2-((1r,4r)-4-(N-methylacetamido)cyclohexyl)-2H-indazole-5-carboxamide]"
24 nM,0.8 nM,> 40000 nM,"COc1cc2nn([C@H]3CC[C@H](N(C)C(C)=O)C[C@H]3C)cc2cc1C(=O)Nc1cccn(C)c1=O [Example 5, 6-Methoxy-N-(1-methyl-2-oxo-1,2-dihydropyridin-3-yl)-2-((1S,2R,4S)-2-methyl-4-(N-methylacetamido)cyclohexyl)-2H-indazole-5-carboxamide]"
29 nM,0.8 nM,7000 nM,"COc1cc2nn([C@H]3CC[C@H](N(C)C(=O)[C@@H](C)O)CC3)cc2cc1C(=O)Nc1cccn(C)c1=O [Example 8, 2-((1R,4r)-4-((R)-2-Hydroxy-N-methylpropanamido)cyclohexyl)-6-methoxy-N-(1-methyl-2-oxo-1,2-dihydropyridin-3-yl)-2H-indazole-5-carboxamide]"
23 nM,0.9 nM,36300 nM,"COc1cc2nn([C@H]3CC[C@H](N(C)C(=O)[C@H](C)O)CC3)cc2cc1C(=O)Nc1cccn(C2CC2)c1=O [Example 11, N-(1-Cyclopropyl-2-oxo-1,2-dihydropyridin-3-yl)-2-((1S,4r)-4-((S)-2-hydroxy-N-methylpropanamido)cyclohexyl)-6-methoxy-2H-indazole-5-carboxamide]"
20 nM,0.4 nM,–,"COc1cc2nn([C@H]3CC[C@]4(CC3)COC(=O)N4C)cc2cc1C(=O)Nc1cccn(C)c1=O [Example 21, 6-Methoxy-N-(1-methyl-2-oxo-1,2-dihydropyridin-3-yl)-2-((5r,8r)-1-methyl-2-oxo-3-oxa-1-azaspiro[4.5]decan-8-yl)-2H-indazole-5-carboxamide]"
